Experimental data as given in article PMC6273913, “New α-Methylene-γ-Butyrolactone Derivatives as Potential Fungicidal Agents: Design, Synthesis and Antifungal Activities” (Molecules, 2016).
Read-outs that look alike come from different tables or passages of the source.

Tests used:
B. cinerea = test: Spore germination assay, fungicidal activity against B. cinerea; format: cell-based, Botrytis cinerea; conditions: in vitro, n = 3
Protocol: (§1) The fungal pathogens C. lagenarium and B. cinerea was provided by the Agricultural Culture Collection of China (Yangling, Shaanxi, China). C. lagenarium was cultured for 2 weeks at 25 ± 1 °C on potato dextrose agar (PDA) while B. cinerea was cultured at 20 °C on the same medium after being retrieved from the storage tube. Plates were flooded with sterile distilled water, and then conidia were scraped with a glass rod. Mycelial debris was removed by filtration. The spores were harvested and suspended in sterile distilled water containing 0.1% (v/v) Tween 20. The concentration of the spore suspension was adjusted to 1.0 × 10^6 spores/mL with sterilized distilled water following.
(§2) The tested samples (10.0 mg) dissolved in acetone (0.1 mL) were diluted with sterile distilled water to prepare 10.0 mL stock solution, which was further diluted to prepare test solutions in which the final concentration of acetone was <1% (v/v). A series of concentrations of tested samples and one control (1% acetone with sterile distilled water) were separately tested for spore germination of C. lagenarium or B. cinerea. The samples were inoculated with spore suspension of C. lagenarium or B. cinerea containing 1.0 × 10^6 spores/mL. Aliquots of 10 μL of prepared spore suspension were placed on separate glass slides in triplicate. Slides containing the spores were incubated in a moisture chamber at 25 °C for 6~8 h. Each slide was then observed under the microscope for spore germination. Spores were considered to have germinated if the length of the germ tube was at least half the length of the spore. Afterward, spore germination was stopped by applying a drop of lactophenol-cotton blue to the inoculation sites on plates. The numbers of generated spores were counted under a microscope (Olympus BX61, Tokyo, Japan), and the percentage of germinated spores was calculated. Chlorothalonil was used as the positive control.

C. lagenarium = test: Spore germination assay, fungicidal activity against C. lagenarium; format: cell-based, Colletotrichum lagenarium
Protocol: as §1, §2

[1] = Colletotrichum orbiculare, Table 1, from IC50 in μM, read-out: pIC50, C. lagenarium (converted)
[2] = Colletotrichum orbiculare, Table 2, fungicidal activity against C. lagenarium used for QSAR, read-out: pIC50 (converted)
[3] = Colletotrichum orbiculare, Table 4, experimental, C. lagenarium, read-out: Exp. pIC50 (converted)
[4] = Colletotrichum orbiculare, in vitro, spore germination, n = 3, read-out: IC50, C. lagenarium

| Compound | IC50 (B. cinerea; Botrytis cinerea) | IC50 (C. lagenarium; [1]) | IC50 (C. lagenarium; [2]) | IC50 (C. lagenarium; [3]) | IC50 (C. lagenarium; [4]) | melting point | IC50 (B. cinerea) | pIC50, C. lagenarium (C. lagenarium; Table 1, from IC50 in μM) | pIC50 (C. lagenarium; Table 2, fungicidal activity against C. lagenarium used for QSAR) | Exp. pIC50 (C. lagenarium; Table 4, experimental, C. lagenarium) | IC50 (C. lagenarium; in vitro, spore germination, n = 3, read-out: IC50, C. lagenarium) |
| --- | --- | --- | --- | --- | --- | --- | --- | --- | --- | --- | --- |
| C=C1CC(c2ccccc2OC(=O)c2ccccc2OC)OC1=O (stereo not shown) [Compound 5k, 4-[2-(2-Methoxylbenzoyloxy)phenyl]-2-methylenebutyrolactone] | 307 µM | 292 µM | 292 µM | 292 µM | 292 µM | 177.8 to 178.6 °C |  |  |  |  |  |
| C=C1CC(c2ccc(OC(=O)c3ccccc3Br)cc2)OC1=O (stereo not shown) [Compound 4d, 4-[4-(2-Bromobenzoyloxy)phenyl]-2-methylenebutyrolactone] | 24.1 µM | 15.6 µM | 15.6 µM | 15.6 µM | 15.6 µM | 174.5 to 174.9 °C |  |  |  |  |  |
| C=C1CC(c2ccc(OC(=O)c3ccccc3C)cc2)OC1=O (stereo not shown) [Compound 4j, 4-[4-(2-Methylbenzoyloxy)phenyl]-2-methylenebutyrolactone] | 199 µM | 192 µM | 192 µM | 192 µM | 192 µM | 189.6 to 190.1 °C |  |  |  |  |  |
| C=C1CC(c2ccc(OC(=O)C=Cc3ccccc3)cc2)OC1=O (stereo not shown) [Compound 4r, 4-[4-(Cinnamoyloxy)phenyl]-2-methylenebutyrolactone] | 56.3 µM | 44.5 µM | 44.5 µM | 44.5 µM | 44.5 µM |  |  |  |  |  |  |
| C=C1CC(c2ccc(OC(=O)c3ccc(Cl)cc3)cc2)OC1=O (stereo not shown) [Compound 4c, 4-[4-(4-Chlorobenzoyloxy)phenyl]-2-methylenebutyrolactone] | 27.3 µM | 12.7 µM | 12.7 µM | 12.7 µM | 12.7 µM | 171.3 to 171.6 °C |  |  |  |  |  |
| C=C1CC(c2ccccc2O)OC1=O (stereo not shown) [Compound 5, 4-(2-Hydroxyphenyl)-2-methylenebutyrolactone] | 280 µM | 239 µM |  |  | 239 µM |  |  |  |  |  |  |
| C=C1CC(c2cccc(OC(=O)CC)c2)OC1=O (stereo not shown) [Compound 6m, 4-(3-Propionyloxyphenyl)-2-methylenebutyrolactone] | 203 µM | 173 µM | 173 µM | 173 µM | 173 µM |  |  |  |  |  |  |
| C=C1CC(c2cccc(OC(=O)c3cccc(OC)c3)c2)OC1=O (stereo not shown) [Compound 6k, 4-[3-(3-Methoxybenzoyloxy)phenyl]-2-methylenebutyrolactone] | 161 µM | 136 µM | 136 µM | 136 µM | 136 µM | 183.7 to 184.2 °C |  |  |  |  |  |
| 4-[2-(Cinnamoyloxy)phenyl]-2-methylenebutyrolactone [Compound 5n] |  |  |  |  |  |  | 20.6 µM | −1.012 | −1.0120 | −1.0120 | 10.3 µM |
| C=C1CC(c2cccc(OC(=O)c3cccc(C)c3)c2)OC1=O (stereo not shown) [Compound 6h, 4-[3-(3-Methylbenzoyloxy)phenyl]-2-methylenebutyrolactone] | 148 µM | 126 µM | 126 µM | 126 µM | 126 µM | 177.6 to 178.2 °C |  |  |  |  |  |
| C=C1CC(c2ccccc2OC(=O)c2ccccc2C)OC1=O (stereo not shown) [Compound 5h, 4-[2-(2-Methylbenzoyloxy)phenyl]-2-methylenebutyrolactone] | 229 µM | 216 µM | 216 µM | 216 µM | 216 µM | 172.8 to 173.4 °C |  |  |  |  |  |
| C=C1CC(c2ccccc2OC(=O)c2ccc(Cl)cc2)OC1=O (stereo not shown) [Compound 5b, 4-[2-(4-Chlorobenzoyloxy)phenyl]-2-methylenebutyrolactone] | 34.5 µM | 17.7 µM | 17.7 µM | 17.7 µM | 17.7 µM | 208.7 to 209.3 °C |  |  |  |  |  |
| C=C1CC(c2ccccc2OC(=O)c2ccccc2)OC1=O (stereo not shown) [Compound 5g, 4-(2-Benzoyloxyphenyl)-2-methylenebutyrolactone] | 194 µM | 171 µM | 171 µM | 171 µM | 171 µM | 166.3 to 167 °C |  |  |  |  |  |
| C=C1CC(c2ccccc2OC(=O)c2ccc(Br)cc2)OC1=O (stereo not shown) [Compound 5e, 4-[2-(4-Bromobenzoyloxy)phenyl]-2-methylenebutyrolactone] | 36.1 µM | 15.3 µM | 15.3 µM | 15.3 µM | 15.3 µM | 184.7 to 185.2 °C |  |  |  |  |  |
| C=C1CC(c2ccccc2OC(C)C)OC1=O (stereo not shown) [Compound 5q, 4-(2-Isopropoxylphenyl)-2-methylenebutyrolactone] | 446 µM | 429 µM | 429 µM | 429 µM | 429 µM |  |  |  |  |  |  |
| C=C1CC(c2ccc(OC(=O)c3ccc(C#N)cc3)cc2)OC1=O (stereo not shown) [Compound 4h] | 77 µM | 65.6 µM | 65.6 µM | 65.6 µM | 65.6 µM |  |  |  |  |  |  |
| C=C1CC(c2ccc(OC(=O)c3ccccc3OC)cc2)OC1=O (stereo not shown) [Compound 4m, 4-[4-(2-Methoxylbenzoyloxy)phenyl]-2-methylenebutyrolactone] | 243 µM | 239 µM | 239 µM | 239 µM | 239 µM | 179.8 to 180.4 °C |  |  |  |  |  |
| C=C1CC(c2ccc(OC(=O)c3ccc(Br)cc3)cc2)OC1=O (stereo not shown) [Compound 4f, 4-[4-(4-Bromobenzoyloxy)phenyl]-2-methylenebutyrolactone] | 23 µM | 14.4 µM | 14.4 µM | 14.4 µM | 14.4 µM | 175.1 to 175.6 °C |  |  |  |  |  |
| C=C1CC(c2cccc(OC(=O)c3ccc(C)cc3)c2)OC1=O (stereo not shown) [Compound 6i, 4-[3-(4-Methylbenzoyloxy)phenyl]-2-methylenebutyrolactone] | 164 µM | 136 µM | 136 µM | 136 µM | 137 µM | 168.5 to 168.9 °C |  |  |  |  |  |
| C=C1CC(c2ccccc2OCCCC)OC1=O (stereo not shown) [Compound 5o, 4-(2-Butoxyphenyl)-2-methylenebutyrolactone] | 457 µM | 414 µM | 414 µM | 414 µM | 414 µM |  |  |  |  |  |  |
| C=C1CC(c2ccccc2OC(=O)c2ccccc2Br)OC1=O (stereo not shown) [Compound 5c, 4-[2-(2-Bromobenzoyloxy)phenyl]-2-methylenebutyrolactone] | 34.6 µM | 15.9 µM | 15.9 µM | 15.9 µM | 15.9 µM | 204.6 to 205.1 °C |  |  |  |  |  |
| C=C1CC(c2cccc(OC(=O)c3ccc(Br)cc3)c2)OC1=O (stereo not shown) [Compound 6e, 4-[3-(4-Bromobenzoyloxy)phenyl]-2-methylenebutyrolactone] | 27.2 µM | 9.71 µM | 9.71 µM | 9.71 µM | 9.7 µM | 168.6 to 169.4 °C |  |  |  |  |  |
| C=C1CC(c2ccccc2OC(=O)c2ccc(C#N)cc2)OC1=O (stereo not shown) [Compound 5f] | 95 µM | 79.1 µM | 79.1 µM | 79.1 µM | 79.1 µM |  |  |  |  |  |  |
| N#Cc1c(Cl)c(Cl)c(Cl)c(C#N)c1Cl [Chlorothalonil, reference compound] | 8.31 µM | 4.21 µM |  |  | 4.21 µM |  |  |  |  |  |  |
| C=C1CC(c2cccc(OCCC)c2)OC1=O (stereo not shown) [Compound 6p, 4-(3-Propoxylphenyl)-2-methylenebutyrolactone] | 298 µM | 266 µM | 266 µM | 266 µM | 266 µM |  |  |  |  |  |  |
